From patent publication US12673947B2 (Cytosinlab Therapeutics Co., Ltd., priority 2020, dated 2026)

Key:
[1] = tested on: MV4;11 cells; test: MV4;11 in vitro inhibition of proliferation assay (CellTiter-Glo, 72 hours); assay type: cell-based; conditions: Homo sapiens, MV4-11, 72 h, IC50 class, read-out: Inhibitory activity of cell proliferation MV4;11
Outline: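 IC50 came from four-parameter fitting of inhibition rates, based on CellTiter-Glo luminescence after 72 hours at 37° C. Each well held 2000 MV4;11 cells grown in IMDM with 10% serum. Compounds formed a nine-point, threefold DMSO series starting at 10 uM, tested in triplicate at 0.3% final DMSO.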

[2] = biological target: T1, FLT3 (Homo sapiens, UniProt P36888); test: FLT3 kinase in vitro inhibitory activity experiment (Caliper mobility shift, conversion rate); assay type: biochemical; conditions: IC50 class, read-out: Enzyme activity FLT3
T1 construct: purchased Carna 08-145
T1 sequence (P36888 27-993): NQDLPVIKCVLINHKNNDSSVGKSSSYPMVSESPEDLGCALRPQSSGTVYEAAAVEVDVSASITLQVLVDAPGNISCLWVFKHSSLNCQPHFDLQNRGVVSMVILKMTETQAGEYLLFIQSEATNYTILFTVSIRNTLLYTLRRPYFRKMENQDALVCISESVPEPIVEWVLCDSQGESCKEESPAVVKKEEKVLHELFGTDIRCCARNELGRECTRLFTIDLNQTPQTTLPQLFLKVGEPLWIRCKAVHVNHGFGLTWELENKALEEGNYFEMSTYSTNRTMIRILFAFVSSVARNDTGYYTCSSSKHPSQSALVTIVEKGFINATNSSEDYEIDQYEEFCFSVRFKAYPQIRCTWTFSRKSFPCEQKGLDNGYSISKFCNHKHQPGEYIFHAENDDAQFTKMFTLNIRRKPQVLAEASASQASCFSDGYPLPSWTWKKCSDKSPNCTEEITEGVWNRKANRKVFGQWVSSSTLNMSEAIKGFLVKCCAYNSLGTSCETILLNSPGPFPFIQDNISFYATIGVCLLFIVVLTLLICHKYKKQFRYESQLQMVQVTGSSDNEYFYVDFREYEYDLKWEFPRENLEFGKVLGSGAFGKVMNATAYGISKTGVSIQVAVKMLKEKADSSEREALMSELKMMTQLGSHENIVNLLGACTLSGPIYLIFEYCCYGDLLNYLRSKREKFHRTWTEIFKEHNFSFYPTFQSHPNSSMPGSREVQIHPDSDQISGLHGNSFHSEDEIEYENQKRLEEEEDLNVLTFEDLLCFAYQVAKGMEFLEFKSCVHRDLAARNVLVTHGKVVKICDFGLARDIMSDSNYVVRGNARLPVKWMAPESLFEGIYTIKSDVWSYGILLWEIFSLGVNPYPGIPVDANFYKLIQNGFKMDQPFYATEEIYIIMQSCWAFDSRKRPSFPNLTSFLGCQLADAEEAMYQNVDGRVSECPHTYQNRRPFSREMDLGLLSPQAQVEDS
Outline: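 Tested in single wells as ten 3-fold dilutions of a 1 μM initial stock. Compound and FLT3 stood 10 min at room temperature; ATP with Kinase substrate 2 was then added for 30 min at room temperature and the reaction stopped. Conversion was measured by Caliper mobility shift, and inhibition was normalised to control-well conversion.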

Row | SMILES | IC50 [1] [nM] | IC50 [2] [nM]
1 | CCc1nc2c(N)ncc(-c3cnn(-c4ccc(C(C)(C)O)nn4)c3)c2nc1N[C@@H]1CC[C@H](O)C1 [Compound 354] | 10 to 100 | ≤ 10
2 | CCc1nc2c(N)ncc(-c3cnn(C4CCN(C)CC4)c3)c2nc1N1CCC(O)C1 (stereo not drawn) [Compound 261] | 10 to 100 | ≤ 10
3 | CCc1nc2c(N)ncc(-c3cnn(C4CCN(CC(C)(C)O)CC4)c3)c2nc1NC1CCOCC1 [Compound 233] | ≤ 10 | ≤ 10
